From patent publication US20240116951A1, “HETEROCYCLIC COMPOUNDS AND USES THEREOF” (Kumquat Biosciences Inc., priority 2022, published 2024)

Experiments:
Type in all cases: binding
[1] = molecular target: T1, KRAS G12S (Homo sapiens, UniProt P01116, G12S); test: HTRF assay of K-Ras G12S interaction with SOS1 (PPI-HTRF); details: 5 nM KRAS G12S, read-out: PPI-HTRF-5 nM KRAS G12S
T1 construct: made in house; host or cells: E. coli, e.g. BL21 (DE3)
Text: (§1) This assay can be also used to assess a selective inhibition or reduction of signaling output of a mutant Ras protein relative to a wildtype, or relative to a different mutant Ras protein. For example, the equilibrium interaction of wildtype Kras or K-Ras mutant (e.g., wildtype or a mutant thereof including those mentioned in Example 4) with SOS1 (e.g., hSOS1) can be assessed as a proxy or an indication for a subject compound's ability to bind and inhibit Ras protein. HTRF assay detects from (i) a fluorescence resonance energy transfer (FRET) donor (e.g., antiGST-Europium) that is bound to GST-tagged K-Ras mutant to (ii) a FRET acceptor (e.g., anti-6His-XL665) bound to a His-tagged hSOS1.
(§2) The assay buffer can contain ˜5 mM HEPES pH 7.4, ˜150 mM NaCl, ˜1 mM DTT, 0.05% BSA and 0.0025% (v/v) Igepal. A Ras working solution is prepared in an assay buffer containing typically a suitable amount of the protein construct (e.g., GST-tagged K-Ras mutant) and the FRET donor (e.g., antiGST-Eu(K) from Cisbio, France). A SOS1 working solution is prepared in an assay buffer containing suitable amount of the protein construct (e.g., His-hSOS1) and the FRET acceptor (e.g., anti-6His-XL665 from Cisbio, France). A suitable amount of the protein construct will depend on the range of activity or range of IC50 values being detected or under investigation. For detecting IC50 within a range of 500 nM, the protein constructs of the same range of molarity can be utilized. […] A fixed volume of DMSO with or without test compound is transferred into a 384-well plate. Ras working solution is added to all wells of the test plate. SOS1 working solution is added to all wells except for those that are subsequently filled the inhibitor control solution. Upon incubation for about 10 minutes or longer, the fluorescence is measured with a M1000Pro plate reader (Tecan) using HTRF detection (excitation 337 nm, emission 1: 620 nm, emission 2: 665 nm). Compounds are tested in duplicates at different concentrations (for example, 10 μM, 2.5 μM, 0.63 μM, 0.16 μM, 0.04 μM, 0.01 μM test compound). The ratiometric data (i.e., emission 2 divided by emission 1) is used to calculate IC50 values against Ras using GraphPad Prism (GraphPad software). Following this general procedure, samples were tested with or without a subject compound disclosed herein including compounds exemplified in Table 1 to assess their abilities to inhibit a mutant K-Ras relative to another mutant K-Ras or wildtype K-Ras. Signaling output measured in terms of IC50 values can be obtained, a ratio of IC50 against one mutant relative to another mutant can be calculated. For instance, a selective reduction of K-Ras G12D signaling output can be evidenced by a ratio greater than one. In particular, a selective reduction of K-Ras G12D signaling relative to K-Ras WT signaling is evidenced as the ratio of IC50 (against K-Ras WT) to IC50 (against K-Ras G12D) is greater than 1.

[2] = molecular target: T2, KRAS G12D (Homo sapiens, UniProt P01116, G12D); test: HTRF assay of K-Ras G12D interaction with SOS1 (PPI-HTRF); details: HTRF, 5 nM KRAS G12D; read-out: PPI-HTRF-5 nM KRAS G12D
T2 construct: made in house; host or cells: E. coli, e.g. BL21 (DE3)
Text: as §1, §2

[3] = molecular target: T3, KRAS WT (Homo sapiens, UniProt P01116); test: HTRF assay of wildtype K-Ras interaction with SOS1 (PPI-HTRF); details: HTRF, 5 nM KRAS WT; read-out: PPI-HTRF-5 nM KRAS WT
T3 construct: made in house; host or cells: E. coli, e.g. BL21 (DE3)
Text: as §1, §2

Measured: IC50

T3 sequence (P01116 1-188 isoform P01116-2): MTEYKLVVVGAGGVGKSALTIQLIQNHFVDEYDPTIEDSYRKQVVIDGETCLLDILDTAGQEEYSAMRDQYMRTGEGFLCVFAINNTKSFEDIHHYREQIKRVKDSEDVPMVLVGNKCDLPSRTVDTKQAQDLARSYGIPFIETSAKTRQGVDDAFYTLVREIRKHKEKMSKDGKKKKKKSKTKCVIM
T2 sequence (P01116 1-188 isoform P01116-2 G12D): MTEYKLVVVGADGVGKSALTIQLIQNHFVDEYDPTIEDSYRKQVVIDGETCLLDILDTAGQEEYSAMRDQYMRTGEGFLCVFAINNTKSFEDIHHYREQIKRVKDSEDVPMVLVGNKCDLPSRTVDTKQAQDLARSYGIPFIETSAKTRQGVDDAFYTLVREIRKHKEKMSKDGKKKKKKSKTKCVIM
T1 sequence (P01116 1-188 isoform P01116-2 G12S): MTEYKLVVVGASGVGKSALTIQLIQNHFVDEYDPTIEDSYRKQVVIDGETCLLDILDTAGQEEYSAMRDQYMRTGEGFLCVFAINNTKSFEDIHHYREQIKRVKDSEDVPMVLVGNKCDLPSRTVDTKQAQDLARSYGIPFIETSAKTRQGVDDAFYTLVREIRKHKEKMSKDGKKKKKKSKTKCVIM

C[C@H]1N(c2nc(OC[C@@]34CCCN3C[C@H](F)C4)nc3c(F)c(-c4ccc(F)c5sc(N)c(C#N)c45)c(Cl)cc23)CC[C@@]12CCN2C(=O)n1cnc(C(F)F)n1 [Compound 325, 2-amino-4-(6-chloro-4-((4R,5R)-1-(3-(difluoromethyl)-1H-1,2,4-triazole-1-carbonyl)-5-methyl-1,6-diazaspiro[3.4]octan-6-yl)-8-fluoro-2-(((2R,7aS)-2-fluorotetrahydro-1H-pyrrolizin-7a(5H)-yl)methoxy)quinazolin-7-yl)-7-fluorobenzo[b]thiophene-3-carbonitrile]
< 5 µM: all assays above

N#Cc1c(N)sc2c(F)ccc(-c3c(Cl)cc4c(N5CCC6(CCN6)C5)nc(OC[C@@]56CCCN5C[C@H](F)C6)nc4c3F)c12 (stereo partly drawn) [Compound 212, 2-amino-4-(6-chloro-8-fluoro-2-(((2R,7aS)-2-fluorotetrahydro-1H-pyrrolizin-7a(5H)-yl)methoxy)-4-(1,6-diazaspiro[3.4]octan-6-yl)quinazolin-7-yl)-7-fluorobenzo[b]thiophene-3-carbonitrile]
< 5 µM: all assays above

Cc1ncn(C(=O)N2CCOCC23CCN(c2nc(OC[C@@]45CCCN4C[C@H](F)C5)nc4c(F)c(-c5ccc(F)c6sc(N)c(C#N)c56)c(Cl)cc24)C3)n1 (stereo partly drawn) [Compound 214, 2-amino-4-(6-chloro-8-fluoro-2-(((2R,7aS)-2-fluorotetrahydro-1H-pyrrolizin-7a(5H)-yl)methoxy)-4-(6-(3-methyl-1H-1,2,4-triazole-1-carbonyl)-9-oxa-2,6-diazaspiro[4.5]decan-2-yl)quinazolin-7-yl)-7-fluorobenzo[b]thiophene-3-carbonitrile]
< 5 µM: all assays above

N#Cc1c(N)sc2c(F)ccc(-c3c(Cl)cc4c(N5CC[C@]6(CCN6)C5)nc(OC[C@@]56CCCN5C[C@H](F)C6)nc4c3F)c12 [Compound 285, 2-amino-4-(6-chloro-8-fluoro-2-(((2R,7aS)-2-fluorotetrahydro-1H-pyrrolizin-7a(5H)-yl)methoxy)-4-((R)-1,6-diazaspiro[3.4]octan-6-yl)quinazolin-7-yl)-7-fluorobenzo[b]thiophene-3-carbonitrile]
< 5 µM: all assays above

C[C@H](Oc1nc(N2CCC3(CCN3C(=O)C3CC3(F)F)C2)c2cc(Cl)c(-c3ccc(F)c4sc(N)c(C#N)c34)c(F)c2n1)[C@@H]1CCCN1C (stereo partly drawn) [Compound 280, 2-amino-4-(6-chloro-4-(1-(2,2-difluorocyclopropane-1-carbonyl)-1,6-diazaspiro[3.4]octan-6-yl)-8-fluoro-2-((S)-1-((S)-1-methylpyrrolidin-2-yl)ethoxy)quinazolin-7-yl)-7-fluorobenzo[b]thiophene-3-carbonitrile]
< 5 µM: all assays above

N#Cc1c(N)sc2c(F)ccc(-c3c(Cl)cc4c(N5CCC6(CCN6C(=O)n6cccc6C#N)C5)nc(OC[C@@]56CCCN5C[C@H](F)C6)nc4c3F)c12 (stereo partly drawn) [Compound 289, 1-(6-(7-(2-amino-3-cyano-7-fluorobenzo[b]thiophen-4-yl)-6-chloro-8-fluoro-2-(((2R,7aS)-2-fluorotetrahydro-1H-pyrrolizin-7a(5H)-yl)methoxy)quinazolin-4-yl)-1,6-diazaspiro[3.4]octane-1-carbonyl)-1H-pyrrole-2-carbonitrile]
< 5 µM: all assays above

N#Cc1c(N)sc2c(F)ccc(-c3c(Cl)cc4c(N5CC[C@@]6(CCN6C(=O)n6cnc(CCl)n6)C5)nc(OC[C@@]56CCCN5C[C@H](F)C6)nc4c3F)c12 [Compound 322, 2-amino-4-(6-chloro-4-((R)-1-(3-(chloromethyl)-1H-1,2,4-triazole-1-carbonyl)-1,6-diazaspiro[3.4]octan-6-yl)-8-fluoro-2-(((2R,7aS)-2-fluorotetrahydro-1H-pyrrolizin-7a(5H)-yl)methoxy)quinazolin-7-yl)-7-fluorobenzo[b]thiophene-3-carbonitrile]
< 5 µM: all assays above

C[C@H](Oc1nc(N2CCC3(CCN3)C2)c2cc(Cl)c(-c3ccc(F)c4sc(N)c(C#N)c34)c(F)c2n1)[C@@H]1CCCN1C (stereo partly drawn) [Compound 213, 2-amino-4-(6-chloro-8-fluoro-2-((S)-1-((S)-1-methylpyrrolidin-2-yl)ethoxy)-4-(1,6-diazaspiro[3.4]octan-6-yl)quinazolin-7-yl)-7-fluorobenzo[b]thiophene-3-carbonitrile]
< 5 µM: all assays above

N#Cc1c(N)sc2c(F)ccc(-c3c(Cl)cc4c(N5CCC6(CCN6C(=O)n6cnc(Cl)n6)C5)nc(OC[C@@]56CCCN5C[C@H](F)C6)nc4c3F)c12 (stereo partly drawn) [Compound 312, 2-amino-4-(6-chloro-4-(1-(3-chloro-1H-1,2,4-triazole-1-carbonyl)-1,6-diazaspiro[3.4]octan-6-yl)-8-fluoro-2-(((2R,7aS)-2-fluorotetrahydro-1H-pyrrolizin-7a(5H)-yl)methoxy)quinazolin-7-yl)-7-fluorobenzo[b]thiophene-3-carbonitrile]
< 5 µM: all assays above

N#Cc1c(N)sc2c(F)ccc(-c3c(Cl)cc4c(N5CC[C@@]6(CCN6)C5)nc(OC[C@@]56CCCN5C[C@H](F)C6)nc4c3F)c12 [Compound 331, 2-amino-4-(6-chloro-8-fluoro-2-(((2R,7aS)-2-fluorotetrahydro-1H-pyrrolizin-7a(5H)-yl)methoxy)-4-((S)-1,6-diazaspiro[3.4]octan-6-yl)quinazolin-7-yl)-7-fluorobenzo[b]thiophene-3-carbonitrile]
< 5 µM: all assays above

C#Cc1c(F)ccc2cc(O)cc(-c3ccc4c(N5CCC6(CCN6C(=O)n6cncn6)C5)nc(OC[C@@]56CCCN5C[C@H](F)C6)nc4c3F)c12 (stereo partly drawn) [Compound 277, (6-(7-(8-ethynyl-7-fluoro-3-hydroxynaphthalen-1-yl)-8-fluoro-2-(((2R,7aS)-2-fluorotetrahydro-1H-pyrrolizin-7a(5H)-yl)methoxy)quinazolin-4-yl)-1,6-diazaspiro[3.4]octan-1-yl)(1H-1,2,4-triazol-1-yl)methanone]
< 5 µM: all assays above

Cc1nc(C(C)C)nn1C(=O)N1CCOCC12CCN(c1nc(OC[C@@]34CCCN3C[C@H](F)C4)nc3c(F)c(-c4ccc(F)c5sc(N)c(C#N)c45)c(Cl)cc13)C2 (stereo partly drawn) [Compound 337, 2-Amino-4-(6-chloro-8-fluoro-2-(((2R,7aS)-2-fluorotetrahydro-1H-pyrrolizin-7a(5H)-yl)methoxy)-4-(6-(3-isopropyl-5-methyl-1H-1,2,4-triazole-1-carbonyl)-9-oxa-2,6-diazaspiro[4.5]decan-2-yl)quinazolin-7-yl)-7-fluorobenzo[b]thiophene-3-carbonitrile]
< 5 µM: all assays above
